Results published in patent US11497713B2, “Combination taxoid nanoemulsion with immunotherapy in cancer” (TargaGenix, Inc., priority 2017, dated 2022).
Entries after “also recorded” stand apart in the source; their conditions may differ. Where two headings read alike, the source gives them in different places.

Key:
[1] = test system: PD-L1, PD-1, CD4, CD8 and Arginase-1 expression in tumor tissues; test: RT-PCR and western blotting of Panc02 tumor tissues; type: in vivo, mouse; details: anti-PD-L1 combination versus IgG treated group
Protocol: Cells and tumor tissues were washed twice with phosphate-buffered saline (PBS) and lysed in ice-cold lysis buffer containing 2% proteinase inhibitor (both from Sigma-Aldrich Co., St. Louis, Mo., USA). Cells were retrieved with a cell scraper, stirred and incubated on ice for 15 minutes. Mice tumor tissues were sonicated for 10 seconds on ice with sonicator. Lysates were centrifuged, supernatants were collected, and protein concentration was determined using the Bio-Rad protein assay (Bio-Rad Laboratories, Hercules, Calif., USA). The supernatants were diluted with lysis buffer to create equal concentrations of protein. […] Immunocomplexes were detected using western blotting (ECL Prime; GE Healthcare UK Ltd., Buckinghamshire, UK).
The expression level of PD-L1 and mRNA for other proteins was determined using real-time PCR as previously described. […] Relative quantifications of gene expression with qRT-PCR data were calculated relative to murine β-actin.
To investigate how the anticancer agents, induce PD-L1, PD-1, CD4, CD8 and Arginase-1 mRNA expression in pancreatic cancer tumor tissues, the mRNA level of PD-L1, PD-1, CD4, CD8, and Arginase-1 either alone or in combination of immune checkpoint inhibitor was determined by RT-PCR. […]

[2] = test system: PDAC; details: cited from earlier work
[3] = test system: human CFPAC-1 pancreatic tumor xenograft; test: Human CFPAC-1 pancreatic tumor xenograft efficacy (FIG. 2); type: in vivo, mice; details: 240 mg/kg or 300 mg/kg total dose
[4] = test system: human PANC-1 pancreatic tumor xenograft; test: Human PANC-1 pancreatic tumor xenograft, schedule comparison (FIG. 3); type: in vivo, RPCI SCID mice
Text: In FIG. 3, this experiment compared a q7d×3 with a q3d×3 schedule for paclitaxel and DHA-SBT-1214 using a human PANC-1 pancreatic tumor xenograft in RPCI SCID mice. […] Paclitaxel was only weakly effective, showing tumor growth delays of 18 days with q7d×3 schedule and 13 days with q3d×3 schedule and no CRs.

[5] = test system: colon and prostate cancer cell lines grown as spheroids; test: Spheroid assay with CD133high/CD44high colon and prostate cancer cells; type: cell-based; details: cells selected for CD133high/CD44high
Text: The results from experiments using DHA-SBT-1214 in two human pancreatic tumor models (FIGS. 2 and 3) and a proof-of-concept in patient-derived CSC model are described below. The compelling aspects of DHA-SBT-1214 preclinical activity is its effects on CSCs. Highly plastic CSCs are an important new drug target in the treatment of refractory tumors. Through the development of drugs specifically targeting CSCs (or targeting CSCs in addition to tumor cells) a more durable clinical response may be possible. In addition to the previously described cytotoxicity assays in cell cultures, DHA-SBT-1214 was tested in colon and prostate cancer cell lines grown as spheroids from cells selected for being CD133^high/CD44^high, characteristic of stem cells. […] Perhaps more significant was the effect of exposure to relatively low concentrations of DHA-SBT-1214 (100 nM to 1 μM) for 24 hours on the expression of genes associated with “sternness” in several colon and prostate cancer cells lines grown as microspheres (6,7).

[6] = test system: patient-derived PPT2 prostate cancer stem cell xenograft; test: Patient-derived prostate cancer stem cell (PPT2) xenograft model; type: in vivo, mice; details: patient-derived prostate CSC xenograft
[7] = test system: highly drug resistant tumor xenografts; test: Highly drug resistant tumor xenografts in mice; details: mouse, in vivo
[8] = target: P-glycoprotein (P-gp) transporter (Homo sapiens, UniProt P08183); details: cited from earlier work
P-glycoprotein (P-gp) transporter, sequence (P08183 whole entry): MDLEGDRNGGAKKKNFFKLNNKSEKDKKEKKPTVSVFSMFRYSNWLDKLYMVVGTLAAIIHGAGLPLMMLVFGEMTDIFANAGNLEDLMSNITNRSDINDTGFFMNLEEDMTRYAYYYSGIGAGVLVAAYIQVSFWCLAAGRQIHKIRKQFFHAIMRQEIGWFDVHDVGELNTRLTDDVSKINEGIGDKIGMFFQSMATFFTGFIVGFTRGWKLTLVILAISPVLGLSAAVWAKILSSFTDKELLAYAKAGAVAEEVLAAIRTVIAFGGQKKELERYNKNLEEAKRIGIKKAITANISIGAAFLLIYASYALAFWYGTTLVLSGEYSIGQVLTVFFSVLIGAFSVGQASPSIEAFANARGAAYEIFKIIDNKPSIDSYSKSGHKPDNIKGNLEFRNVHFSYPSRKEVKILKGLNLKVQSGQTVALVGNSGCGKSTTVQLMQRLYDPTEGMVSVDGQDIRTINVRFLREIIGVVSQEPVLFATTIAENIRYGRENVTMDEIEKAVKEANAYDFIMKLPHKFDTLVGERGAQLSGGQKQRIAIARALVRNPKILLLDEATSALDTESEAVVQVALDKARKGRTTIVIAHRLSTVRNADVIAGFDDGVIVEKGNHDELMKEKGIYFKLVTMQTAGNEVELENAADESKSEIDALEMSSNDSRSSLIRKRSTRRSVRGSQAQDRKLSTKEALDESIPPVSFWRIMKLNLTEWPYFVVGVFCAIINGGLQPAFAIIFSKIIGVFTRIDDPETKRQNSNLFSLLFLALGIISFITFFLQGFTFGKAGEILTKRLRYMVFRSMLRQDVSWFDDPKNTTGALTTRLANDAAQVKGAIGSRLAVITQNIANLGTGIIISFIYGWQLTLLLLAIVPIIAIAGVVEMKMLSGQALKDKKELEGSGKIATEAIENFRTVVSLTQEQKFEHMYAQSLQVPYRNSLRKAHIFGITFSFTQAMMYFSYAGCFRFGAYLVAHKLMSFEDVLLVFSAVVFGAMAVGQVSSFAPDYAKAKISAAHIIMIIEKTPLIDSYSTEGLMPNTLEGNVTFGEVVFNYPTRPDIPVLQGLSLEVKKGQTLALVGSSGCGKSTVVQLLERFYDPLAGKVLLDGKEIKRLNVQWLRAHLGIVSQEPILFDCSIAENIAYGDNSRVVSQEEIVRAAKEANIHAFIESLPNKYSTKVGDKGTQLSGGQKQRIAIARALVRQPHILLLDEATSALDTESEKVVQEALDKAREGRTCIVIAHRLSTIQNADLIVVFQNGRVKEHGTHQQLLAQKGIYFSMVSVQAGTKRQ

[9] = Formulation concentration, droplet properties and storage stability
Text: The droplet size is consistently less than 200 nm in diameter allowing one to filter sterilize the final formulation. The zeta potential of the nanoemulsion is in the range of negative 23 mV to 33 m.

SMILES	PD-1 and CD4 mRNA level [1]	median overall survival ([2]; MPACT Phase III clinical trial)	median overall survival ([2]; randomized Phase III trial, gemcitabine versus 5-FU)	weight loss [3]	toxic deaths ([4]; 300 mg/kg total dose)	complete responses (CRs) ([4]; PANC-1 xenograft)	tumor growth delay ([4]; both schedules (q7d×3 and q3d×3))	MTD ([4]; total dosage (80 mg/kg×3 inj))	number of spheroids [5]	efficacy (tumor growth, survival) [6]	efficacy [7]	substrate for MDR mechanisms such as P-gp over-expression [8]	increase in drug concentration in omega-3 fatty acid based nanoemulsion by DHA conjugation [9]	stability ([9]; in Solutol-HS15)	formulated drug concentration ([9]; in Tween 80 or Solutol-HS15)
Nc1ccn([C@@H]2O[C@H](CO)[C@@H](O)C2(F)F)c(=O)n1 [gemcitabine]	not significantly higher	6.6 months	5.65 months	–	–	–	–	–	–	–	–	–	–	–	–
CC/C=C\C/C=C\C/C=C\C/C=C\C/C=C\C/C=C\CCC(=O)O[C@@H](C(=O)O[C@H]1C[C@@]2(O)[C@@H](OC(=O)c3ccccc3)[C@@H]3[C@]4(OC(C)=O)CO[C@@H]4C[C@H](O)[C@@]3(C)C(=O)[C@H](OC(=O)C3CC3)C(=C1C)C2(C)C)[C@H](C=C(C)C)NC(=O)OC(C)(C)C [DHA-SBT-1214, Docosahexaenoic acid conjugate of SBT-1214]	–	–	–	negligible	one toxic death	achieved CRs and essentially were cured	> 90 days	240 mg/kg	greatly reduced	effective; also recorded: superior to ABRAXANE® and resulted in tumor clearance	remarkable efficacy	not a substrate	5 fold	less than 24 hours	6 mg/mL
